{
  "source": "patent US8580789B2",
  "about": "“Treating glaucoma” (The Cleveland Clinic Foundation, priority 2007, dated 2013)",
  "key": {"human sclera": {"tested_on": "human sclera", "conditions": "scleral strips; 1 hour glutaraldehyde, 5 days glyceraldehydes, 30 minutes UVA for riboflavin/UVA; cited from earlier work"}, "porcine sclera": {"tested_on": "porcine sclera", "conditions": "scleral strips; 1 hour glutaraldehyde, 5 days glyceraldehydes, 30 minutes UVA for riboflavin/UVA; cited from earlier work"}, "peripapillary sclera": {"tested_on": "peripapillary sclera", "assay": "Estimate of PS ring elastic (secant) modulus by LaPlace equation and measured strain", "parameters": "species or system porcine", "text": "By a similar analysis of strain across the ON in the same eyes, the pressure-induced change in ON diameter was 10.5±3.9% horizontally and 9.4±6.5% vertically prior to crosslinking. The combined vertical and horizontal strain averaged 7.3±4.4% across the PS ring and 10.2±5.4% across the ON/LC region alone (p=0.22). […] The native stiffness value compares favorably to the porcine scleral modulus of 500 kPa measured by Pierscionek B K, et al., Br J Opthalmol.; 91(6):801-803 (2007) particularly since their measurement was obtained at a lower peak pressure (50 mmHg) and was obtained from the entire sclera, which incorporates the thinner and effectively more elastic sclera anterior to the posterior pole (Olsen T W, et al., Invest Opthalmol Vis Sci; 43(8):2529-2532 (2002)).\nThe elastic modulus (E) of peripapillary sclera (PS) in Group 3 was estimated before and after crosslinking. First, measured PS strain was […] the circumferential stress as derived from the LaPlace equation, σ=IOP×R/2t, where σ indicates the circumferential stress as a function of IOP, scleral radius of curvature (R), and sclera thickness (t). […]"}, "[1]": {"tested_on": "optic nerve/lamina cribrosa complex", "assay": "Photographic circumferential strain analysis during IOP elevation, ON/LC", "parameters": "species or system porcine", "conditions": "Group 3; GTA on PS only; IOP 2-4 to 80 mmHg", "protocol": "Eighteen porcine globes were divided evenly into 3 groups. The optic nerves were transected to expose the ON/LC, and each globe was infused through an in-line pressure transducer for direct IOP control. Surface wave velocity, a non-destructive measure of tissue stiffness, was measured across the ON/LC and PS before and after collagen crosslinking at IOP of 10 and 30 mmHg (groups 1 and 2) and at each globe's preinflation IOP and 80 mmHg (group 3). In group 3, papillary strain was measured by analyzing the displacement of fiducial marks immediately adjacent to the ON/LC using digital photography.\nIn group 3 (n=6), the same procedure described for group 2 was implemented with the following exceptions. First, four fiducial ink marks were placed in each quadrant of the PS immediately adjacent to the ON/LC prior to measurement. High-resolution (7.1 megapixel) digital photos were then taken at both low and high IOP before and after crosslinking. The vertical and horizontal distances between the outer extent of the ink marks and the outer margins of the optic nerve were measured in Photoshop (Adobe Systems, Inc., San Jose, Calif.), and the centripetal displacement of the fiducial marks (Δ1) was divided by the initial distance between the marks (10) to yield dimensionless indicators of circumferential strain (ζ=Δ1/10) in the peripapillary sclera and ON/LC, respectively. Second, measurements were acquired at each eye's pre-inflation pressure (between 2 to 4 mmHg) and at 80 mmHg to ensure that measurable changes in SWV and ON/LC geometry would be generated in at least one experimental group. As in group 2, the peripapillary sclera was selectively exposed to GTA and post-crosslinking measurements were repeated at low and high IOP. Same-eye statistical comparisons of wave velocity and strain were performed with paired student's t-tests."}},
  "data": [
    {"smiles": "O=CCCCC=O", "note": "[GTA, glutaraldehyde]", "values": [
      {"measurement": "Rise in human scleral stress (rigidity)", "setting": "human sclera", "result": 122, "unit": "%"},
      {"measurement": "Rise in porcine scleral stress (rigidity)", "setting": "porcine sclera", "result": 8, "unit": "×"},
      {"measurement": "PS ring elastic modulus after crosslinking (estimate)", "setting": "peripapillary sclera; Group 3, GTA, stress increment 4 to 80 mmHg divided by crosslinked strain", "result": 16.1, "unit": "MPa"},
      {"measurement": "Increase in stiffness (elastic modulus) of peripapillary sclera with crosslinking", "setting": "peripapillary sclera; glutaraldehyde-mediated crosslinking, estimate", "result": "~20", "unit": "fold"},
      {"measurement": "Average Circumferential Strain of ON/LC with IOP elevation, Post-Crosslinking Mean ± SD", "setting": "[1]", "result": "0.0 ± 0.0", "unit": "%"},
      {"measurement": "Horizontal Circumferential Strain of ON/LC with IOP elevation, Post-Crosslinking Mean ± SD", "setting": "[1]", "result": "0.0 ± 0.0", "unit": "%"},
      {"measurement": "Vertical Circumferential Strain of ON/LC with IOP elevation, Post-Crosslinking Mean ± SD", "setting": "[1]", "result": "0.0 ± 0.0", "unit": "%"}
    ]}
  ]
}
